Results published in ChEMBL document CHEMBL4304796, “DPP1 Inhibitors: Exploring the Role of Water in the S2 Pocket of DPP1 with Substituted Pyrrolidines” (ACS Med Chem Lett, 2019).
pIC50: −log10 of the molar value.

target: T1, Dipeptidyl peptidase 1 (Homo sapiens, UniProt P53634); test: Inhibition of recombinant human DPPI using H-Gly-Arg-AFC as substrate preincubated for 30 mins followed by substrate addition measured after 60 mins by fluorescence plate reader analysis
T1 sequence (P53634 25-134 limits assumed): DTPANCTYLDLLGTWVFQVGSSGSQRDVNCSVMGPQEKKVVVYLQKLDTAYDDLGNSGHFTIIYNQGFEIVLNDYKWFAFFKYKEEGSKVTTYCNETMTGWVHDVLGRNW
T1 sequence (P53634 231-394 limits assumed): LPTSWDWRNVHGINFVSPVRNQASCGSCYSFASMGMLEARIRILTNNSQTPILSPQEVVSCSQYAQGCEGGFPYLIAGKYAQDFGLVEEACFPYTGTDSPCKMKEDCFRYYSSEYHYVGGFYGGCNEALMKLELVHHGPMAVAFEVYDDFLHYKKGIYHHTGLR
T1 sequence (P53634 395-463 limits assumed): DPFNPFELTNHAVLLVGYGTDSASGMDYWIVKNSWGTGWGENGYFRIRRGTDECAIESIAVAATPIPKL

SMILES | pIC50
N#Cc1ccc(-c2ccc(C[C@@H](C#N)NC(=O)[C@@H]3CCCN3)cc2)cc1 | 7.30
N#Cc1ccc(-c2ccc(C[C@@H](C#N)NC(=O)[C@@H]3C[C@@H](F)CN3)cc2)cc1 | 6.20
CS[C@@H]1CN[C@H](C(=O)N[C@H](C#N)Cc2ccc(-c3ccc(C#N)cc3)cc2)C1 | 9.40
N#Cc1ccc(-c2ccc(C[C@@H](C#N)NC(=O)[C@@H]3CC(F)(F)CN3)cc2)cc1 | 7.10
N#Cc1ccc(-c2ccc(C[C@@H](C#N)NC(=O)[C@@H]3C[C@H](O)CN3)cc2)cc1 | 8.20
N#Cc1ccc(-c2ccc(C[C@@H](C#N)NC(=O)[C@@H]3C[C@H](F)CN3)cc2)cc1 | 8.80

target: T1, Dipeptidyl peptidase 1; test: Inhibition of recombinant human DPPI using H-Gly-Arg-AMC as substrate preincubated for 30 mins followed by substrate addition measured after 60 mins by fluorescence plate reader analysis

SMILES | pIC50
N#C[C@H](Cc1ccc(-c2ccccc2)cc1)NC(=O)[C@@H]1C[C@@H](O)CN1 | 6.80
N#Cc1ccc(-c2ccc(C[C@@H](C#N)NC(=O)[C@@H]3C[C@@H](O)CN3)cc2)cc1 | 7.30
